Assays:
[1] = biological target: T1, prostacyclin receptors (IP receptors) of human thrombocyte membranes (Homo sapiens, UniProt P43119); assay: Binding to prostacyclin receptors (IP receptors) of human thrombocyte membranes (3H-Iloprost displacement); conditions: 3 nM 3H-Iloprost, 60 min, room temperature
T1 construct: 300-1000 μg/ml human thrombocyte membranes per charge; tissue Maco Pharma, Langen (buffy coats); host or cells: human thrombocyte (platelet) membranes prepared from human blood buffy coats
Method: B-1. Studies of Binding to Prostacyclin Receptors (IP Receptors) of Human Thrombocyte Membranes
Thrombocyte membranes are obtained by centrifuging 50 ml human blood (Buffy coats with CDP Stabilizer, from Maco Pharma, Langen) for 20 min at 160×g. Remove the supernatant (platelet-rich plasma, PRP) and then centrifuge again at 2000×g for 10 min at room temperature. Resuspend the sediment in 50 mM tris-(hydroxymethyl)-aminomethane, which has been adjusted to a pH of 7.4 with 1 N hydrochloric acid, and store at −20° C. overnight. On the next day, centrifuge the suspension at 80000×g and 4° C. for 30 minDiscard the supernatant. Resuspend the sediment in 50 mM tris-(hydroxymethyl)-aminomethane/hydrochloric acid, 0.25 mM ethylene diamine tetraacetic acid (EDTA), pH 7.4, and then centrifuge once again at 80000×g and 4° C. for 30 min. Take up the membrane sediment in binding buffer (50 mM tris-(hydroxymethyl)-aminomethane/hydrochloric acid, 5 mM magnesium chloride, pH 7.4) and store at −70° C. until the binding test.
For the binding test, incubate 3.nM ^3H-Iloprost (592 GBq/mmol, from AmershamBioscience) for 60 min with 300-1000 μg/ml human thrombocyte membranes per charge (max. 0.2 ml) in the presence of the test substances at room temperature. After stopping, add cold binding buffer to the membranes and wash with 0.1% bovine serum albumin. After adding Ultima Gold Scintillator, quantify the radioactivity bound to the membranes using a scintillation counter. The nonspecific binding is defined as radioactivity in the presence of 1 μM Iloprost (from Cayman Chemical, Ann Arbor) and is as a rule <25% of the bound total radioactivity. The binding data (IC50 values) are determined using the program GraphPad Prism Version 3.02.

[2] = rapid non-enzymatic transformation to inactive metabolite 6-keto-prostaglandin-F1alpha; cited from earlier work

T1 sequence (P43119 whole entry): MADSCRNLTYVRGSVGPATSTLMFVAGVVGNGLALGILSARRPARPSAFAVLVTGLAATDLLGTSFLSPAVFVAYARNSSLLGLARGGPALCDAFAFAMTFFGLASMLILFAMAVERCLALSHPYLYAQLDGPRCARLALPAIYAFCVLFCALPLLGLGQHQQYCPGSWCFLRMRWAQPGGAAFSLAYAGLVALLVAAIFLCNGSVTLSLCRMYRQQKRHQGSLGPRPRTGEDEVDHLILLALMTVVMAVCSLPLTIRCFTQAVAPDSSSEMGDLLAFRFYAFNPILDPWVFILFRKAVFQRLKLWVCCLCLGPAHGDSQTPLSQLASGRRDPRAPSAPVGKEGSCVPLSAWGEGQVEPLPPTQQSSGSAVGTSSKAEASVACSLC

SMILES	IC50 [1] [µM]	half-life [2]
COC(=O)COc1cccc(Nc2ncnc3oc(-c4ccccc4)c(-c4ccc(OC)cc4)c23)c1 [Example 9, 3-{[5-(4-methoxyphenyl)-6-phenylfuro[2,3-d]pyrimidin-4-yl]amino}phenoxyacetic acid methyl ester]	0.043	–
COc1ccc(-c2c(-c3ccccc3)oc3ncnc(O[C@H]4CCC[C@@H](OCC(=O)O)C4)c23)cc1 (single isomer, unassigned) [Example 68]	0.034	–
COc1ccc(-c2c(-c3ccccc3)oc3ncnc(Nc4cccc(/C=C/C(=O)O)c4)c23)cc1 [Example 21, (2E)-3-(3-{[5-(4-Methoxyphenyl)-6-phenylfuro[2,3-d]pyrimidin-4-yl]amino}phenyl)acrylic acid]	0.011	–
COc1ccc(-c2c(-c3ccccc3)oc3ncnc(OC4CCCN(CCCC(=O)O)C4)c23)cc1 (centres unmarked) [Example 84]	0.152	–
O=C(O)COc1cccc(Nc2ncnc3oc(-c4ccccc4)c(-c4ccc(F)cc4)c23)c1 [Example 6, 3-{[5-(4-Fluorophenyl)-6-phenylfuro[2,3-d]pyrimidin-4-yl]amino}phenoxyacetic acid]	0.237	–
CCCCC[C@H](O)/C=C/[C@@H]1[C@H]2C/C(=C/CCCC(=O)O)O[C@H]2C[C@H]1O [PGI2, Prostacyclin]	–	approx. 3 minutes
COc1ccc(-c2c(-c3ccccc3)oc3ncnc(Oc4ccc(CCC(=O)O)cc4)c23)cc1 [Example 24, 3-(4-{[5-(4-Methoxyphenyl)-6-phenylfuro[2,3-d]pyrimidin-4-yl]oxy}phenyl)propanoic acid]	0.015	–
COc1ccc(-c2c(-c3ccccc3)oc3ncnc(O[C@H]4CCC[C@H](OCC(=O)O)C4)c23)cc1 (racemic) [Example 69]	0.008	–
COc1ccc(-c2c(-c3ccccc3)oc3ncnc(O[C@H]4CCC[C@@H](OCC(=O)O)C4)c23)cc1 (single isomer, unassigned) [Example 67]	0.388	–
COc1ccc(-c2c(-c3ccccc3)oc3ncnc(N[C@H]4CCC[C@H](OCC(=O)O)C4)c23)cc1 [Example 87]	0.017	–
COc1ccc(-c2c(-c3ccccc3)oc3ncnc(Nc4cccc(OCC(=O)O)c4)c23)cc1 [Example 10, 3-{[5-(4-Methoxyphenyl)-6-phenylfuro[2,3-d]pyrimidin-4-yl]amino}phenoxyacetic acid]	0.018	–

Continued, in another order:

IC50 [1] [µM]	SMILES	half-life [2]
0.071	COc1ccc(-c2c(-c3ccccc3)oc3ncnc(N[C@H]4CC[C@@H](OCC(=O)O)C4)c23)cc1 [Example 168]	–
0.006	COc1ccc(-c2c(-c3ccccc3)oc3ncnc(N[C@@H]4CC[C@@H](OCC(=O)O)C4)c23)cc1 [Example 170]	–
0.083	CCc1ccc(-c2c(-c3ccccc3)oc3ncnc(O[C@@H]4CCCN(CCCC(=O)O)C4)c23)cc1F (single isomer, unassigned) [Example 159]	–
0.037	COc1ccc(-c2c(-c3ccccc3)oc3ncnc(O[C@H]4CC[C@H](OCC(=O)O)C4)c23)cc1 [Example 162]	–
0.293	O=C(O)CO[C@@H]1CCC[C@H](Oc2ncnc3oc(-c4ccccc4)c(-c4ccc(Cl)cc4)c23)C1 [Example 156]	–
0.028	CCc1ccc(-c2c(-c3ccccc3)oc3ncnc(O[C@@H]4CCCN(CCCC(=O)O)C4)c23)cc1 [Example 154]	–
0.013	CCc1ccc(-c2c(-c3ccccc3)oc3ncnc(O[C@@H]4C=C[C@@H](OCC(=O)O)C4)c23)cc1 [Example 175]	–
0.034	COc1ccc(-c2c(-c3ccccc3)oc3ncnc(O[C@@H]4CCCN(CCc5nnn[nH]5)C4)c23)cc1 [Example 99]	–
0.024	CCc1ccc(-c2c(-c3ccccc3)oc3ncnc(N[C@@H]4C=C[C@@H](OCC(=O)O)C4)c23)cc1 [Example 176]	–
0.027	CCc1ccc(-c2c(-c3ccccc3F)oc3ncnc(O[C@@H]4CCCN(CCCC(=O)O)C4)c23)cc1 [Example 181, 4-[(3R)-3-{[5-(4-Ethylphenyl)-6-(2-fluorophenyl)furo[2,3-d]pyrimidin-4-yl]oxy}piperidin-1-yl]-butyric acid]	–
0.218	COC(=O)CCCN1CCC[C@@H](Oc2ncnc3oc(-c4ccccc4F)c(-c4ccc(OC)cc4)c23)C1 [Example 183, 4-[(3R)-3-{[6-(2-Fluorophenyl)-5-(4-methoxyphenyl)furo[2,3-d]pyrimidin-4-yl]oxy}piperidin-1-yl]butyric acid methyl ester]	–
0.02	CCc1ccc(-c2c(-c3ccccc3)oc3ncnc(N[C@H]4CCC[C@H](OCC(=O)O)C4)c23)cc1 (racemic) [Example 146]	–
